Measured values reported in patent US8865197B2, “Food formulation for aquatic animals with integrated targeted delivery of bioactive agents” (Israel Oceanographic and Limnological Research Ltd., priority 2005, dated 2014).

Test system: rainbow trout
Test: Cannulation experiment: plasma cortisol response to oral ACTH with gut modulators
Assay type: in vivo, rainbow trout (Oncorhynchus mykiss)
Settings: for Cumulative plasma cortisol: over a 360 min period, oral ACTH 0.5 mg kg^−1
Protocol: Rainbow trout of a weight range of 750-1700 g (Spring Valley Trout Farms, Langley, BC) were immunized against firunculosis and vibriosis by injecting them with 0.2 ml fish^−1 of a 1:1 ratio of VIBRIOGEN and FUROGEN (Microtek, BC, Canada), and stocked in 4,000 liter tanks. The tanks were supplied with well water at a temperature of 10±0.5° C. at about 10 exchanges per day. After 10 days fish were transferred gradually over a period of another 10 days to full strength seawater (25-29 ppt). The temperature of the seawater ranged between 7-9° C. according to season. Only following their acclimation to seawater, after another 10 days, were fish used. […] Fish were fed daily about 1% BW of a 42% protein and 33% crude fat diet (Moore-Clark Co., Canada).
Fish were kept individually in 200 1 fiberglass tub aquaria. Fish in the tanks were confined to one half of the tank with a partition. […] In addition, fish were encouraged to swim against a current, which was generated by a pipe which directed the water inflow to the surface of the tank. The experimental fish were not fed within a given experiment, which normally lasted for 5 days, and were force fed once a week with a 0.5% body weight of a Moore Clark “Royal extrude salmon feed” (42% C.P., 33% C.F.), which was mixed with water at a 1:1 ratio to give a paste which could be intubated into the fish.
Fish were anesthetized in two stages. They were first sedated in metomidate hydrochloride (Marinil, Wildlife laboratories Inc. CO, USA) in a 250 ppb solution in the 4000 liter holding tanks with the water supply turned off. Fish were netted out of the 4,000 liter tanks into 15 liter of well aerated 100 ppm MS222 (3 amino benzoic acid ethyl ester; SIGMA) solution in SW for a deeper anesthesia. Fish were sedated until active gill ventilation ceased at which point they were taken out of the water, weighed and cannulated.
Samples were taken of blood to determine plasma cortisol or hCG. Blood sampling was done in two stages: First a volume equal to the dead volume of the cannula (˜250 μl) was withdrawn and discarded, this was followed by sampling 250-500 μl blood, depending on the RIA assay (cortisol or hCG), into a 1 ml EDTA-Aprotinin coated syringe. The blood samples were kept in 500 μl Eppendorf tubes on ice for up to two hours within which time the tubes were centrifuged at 13,000 rpm for 5 min. The supernatant plasma was removed by disposable Pasteur pipettes into Eppendorff tubes and stored at −40° C. until the RIA. When blood samples were taken for hCG analysis they were centrifuged for 5 minutes at 3750 rpm at 5° C.
To measure plasma cortisol, 20 μl of plasma was applied to a kit by INCSTAR (Minnesota, USA). No significant crossreactivity of this kit was found with dexamethasone (9α-Fluoro-16α-Methyl Predindone, SIGMA), while it crossreacted with cortisol (hydrocortisone; SIGMA), which was used in the clearance rate experiments. Porcine ACTH (SIGMA) which was used for the intubation study elicited a cortisol response in fish but could not be detected reliably by the cortisol RIA. Plasma hCG was also determined based on a RIA (INCSTAR) kit and of the orally applied hCG based on Van der Kraak et al. (1984). ACTH stimulates cortisol production in the interrenal cells of the kidney.

For `C[C@H](CCC(=O)O)[C@H]1CC[C@H]2[C@@H]3CC[C@@H]4C[C@H](O)CC[C@]4(C)[C@H]3C[C@H](O)[C@]12C` [DOC, deoxycholic acid], the “cumulative response of cortisol to plasma ACTH” value (DOC molar concentration 0.0167 in the intubation medium (PBS)) was 7042±3243 ng cortisol kg^−1.

With `O=c1[nH]c2ccccc2n1CCCN1CCC(n2c(=O)[nH]c3cc(Cl)ccc32)CC1` [DOM, domperidone] the “gut penetrability to ACTH as reflected by plasma cortisol” value (change relative to no modulator) was “quadrupled” and the Cumulative plasma cortisol (DOM 4.5 mg kg^−1) was 4329 ng/kg.

With ACTH the “cumulative response of cortisol to plasma ACTH” value (DOC molar concentration 0 in the intubation medium (PBS)) was 1454±597 ng cortisol kg^−1 and the Cumulative plasma cortisol (DOM 0 mg kg^−1) was 1086 ng/kg.
